The values below come from patent US11198696B2, “Substituted xanthines as inhibitors of transient receptor potential cation channel subfamily c, member 5 activity” (Boehringer Ingelheim International GmbH, priority 2018, dated 2021).

For this assay, the target named is T1, TRPC5 (Homo sapiens, UniProt Q9UL62).
T1 construct: expressed in transfected cells; host or cells: HEK293 TREx cells, inducible TRPC5 expression, induced 20-48 hours
T1 sequence (Q9UL62 1-973): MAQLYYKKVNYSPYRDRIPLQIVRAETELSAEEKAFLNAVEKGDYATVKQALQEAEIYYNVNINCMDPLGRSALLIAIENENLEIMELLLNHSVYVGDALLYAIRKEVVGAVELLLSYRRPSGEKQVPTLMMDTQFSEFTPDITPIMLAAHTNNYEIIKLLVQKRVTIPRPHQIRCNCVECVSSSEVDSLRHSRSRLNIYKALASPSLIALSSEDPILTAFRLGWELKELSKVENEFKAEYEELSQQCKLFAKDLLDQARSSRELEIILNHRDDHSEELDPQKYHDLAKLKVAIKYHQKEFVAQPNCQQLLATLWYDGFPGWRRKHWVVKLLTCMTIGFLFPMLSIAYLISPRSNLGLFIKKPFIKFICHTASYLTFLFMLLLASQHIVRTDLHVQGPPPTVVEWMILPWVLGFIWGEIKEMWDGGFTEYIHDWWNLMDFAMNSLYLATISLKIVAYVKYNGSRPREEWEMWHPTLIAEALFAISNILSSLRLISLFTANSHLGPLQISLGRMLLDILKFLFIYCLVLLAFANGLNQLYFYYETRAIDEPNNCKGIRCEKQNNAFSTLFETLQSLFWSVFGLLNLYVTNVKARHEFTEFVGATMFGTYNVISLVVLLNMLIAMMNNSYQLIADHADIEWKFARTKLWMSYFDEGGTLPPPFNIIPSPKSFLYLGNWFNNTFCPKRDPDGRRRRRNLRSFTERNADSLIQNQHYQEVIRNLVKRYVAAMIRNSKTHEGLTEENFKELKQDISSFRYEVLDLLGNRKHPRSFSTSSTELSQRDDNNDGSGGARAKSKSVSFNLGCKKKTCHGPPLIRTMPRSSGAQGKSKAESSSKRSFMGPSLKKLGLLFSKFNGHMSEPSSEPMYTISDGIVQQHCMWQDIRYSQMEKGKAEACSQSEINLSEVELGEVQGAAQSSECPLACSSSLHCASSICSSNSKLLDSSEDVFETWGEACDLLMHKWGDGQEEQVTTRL
Put plainly: Assay A: Determination of TRPC5-Inhibition (whole-cell patch clamp). The class given is cell-based. The following applies: compounds of the present invention, TRPC5-expressing HEK293 TREx cells, LaCl3-activated current. The text has this: Assay A: Determination of TRPC5-Inhibition
Patch clamp experiments permit the detection of currents through the TRPC5 channel in a cell line. In normal whole-cell patch clamp recordings, a glass electrode is brought into contact with a single cell and a high-resistance (gigaohm) seal is established with the cell membrane. The membrane is then ruptured to achieve the whole-cell configuration, permitting control of the voltage of the cell membrane and measurement of currents flowing across the membrane using the amplifier attached to the electrode and resulting in the replacement of cytoplasm with the pipette solution. A perfusion system permits control of the extracellular solution, including the addition of blockers and activators of the current. The current can be activated by including 1.4 μM free Ca2+ in the pipette (intracellular) solution, and 80 μM LaCl3 in the extracellular solution.
TRPC5 cells were induced 20-48 hours, removed from growth plates, and replated at low density (to attain good single-cell physical separation) on glass coverslips for measurement. In some cases, cells were grown in low density overnight on glass coverslips. Patch clamp recordings were made in the whole-cell mode with a holding potential of −40 mV. Every 5 seconds, a voltage ramp was applied from −120 to +100 mV, 400 ms in duration. Currents elicited were quantified at −80 mV and +80 mV. The internal solution consisted of 140 mM cesium aspartate, 10 mM HEDTA, 2 mM CaCl2, 2.27 mM MgCl2 and 10 mM HEPES, pH 7.2, with 1,400 nM calculated free Ca2+. The external solution consisted of 150 mM NaCl, 4.5 mM 15 KCl, 1 mM MgCl2, 2 mM CaCl2, 10 mM HEPES, 10 mM glucose, 1 mM EGTA, pH 7.4. Upon addition of LaCl3, TRPC5 current was induced only in TRPC5-expressing cells and not in parental HEK293 TREx cells. Removal of the LaCh stimulus causes most of the current to go away. Potential blockers were tested for ability to block both inward and outward currents in the continued presence of LaCl3.
IC50 of a compound of the invention was estimated by testing the compound 500 nM. […] Compounds blocking 50% or more at 500 nM are retested at multiple concentrations, and the % block is fitted by standard equations to determine IC50 accurately, using a 5/6 point concentration-response experiment.

pIC50: −log10 of the molar value.

In the case of `CCn1c(=O)n(CCCO)c(=O)c2c1nc(-c1ccc(O[C@H]3CCC[C@@H]3C)nc1C)n2Cc1ccc(Cl)cc1` (racemic) [Example 21], the pIC50 is 9.60.
As for `Cc1nc(OC2CCC2C)ccc1-c1nc2c(c(=O)n(CCCO)c(=O)n2C(C)C)n1Cc1ccc(F)cc1` (stereo not drawn) [Example 1], the pIC50 was over 10.49.
The result for `Cc1nc(OC2CCCCC2)ccc1-c1nc2c(c(=O)n(CCCO)c(=O)n2C(C)C)n1Cc1ccccc1` [Example 2] reads 10.02.
As for `CCn1c(=O)n(CCCO)c(=O)c2c1nc(-c1ccc(OC3CCC3C)nc1C)n2Cc1ccc(Cl)cc1` (stereo not drawn) [Example 3], the pIC50 is 10.00.
The result for `Cc1nc(OC2CCCC2)ccc1-c1nc2c(c(=O)n(CCCO)c(=O)n2C(C)C)n1Cc1ccc(F)cc1` [Example 4] reads over 10.00.
To `Cc1nc(OC2CC(C)C2)ccc1-c1nc2c(c(=O)n(CCCO)c(=O)n2C(C)C)n1Cc1ccc(F)cc1` (stereo not drawn) [Example 5] belongs over 10.00; to `Cc1nc(OC2CCC23CCC3)ccc1-c1nc2c(c(=O)n(CCCO)c(=O)n2C(C)C)n1Cc1ccccc1` (stereo not drawn) [Example 6], over 10.00; to `CCn1c(=O)n(CCCO)c(=O)c2c1nc(-c1ccc(OC3CC4CCC3C4)nc1C)n2Cc1ccc(F)cc1` (stereo not drawn) [Example 7], 9.98.
In the case of `Cc1nc(OC2CCCC2)ccc1-c1nc2c(c(=O)n(CCCO)c(=O)n2C(C)C)n1Cc1ccccc1` [Example 9], the pIC50 is 9.89.
To `CCn1c(=O)n(CCCO)c(=O)c2c1nc(-c1ccc(OC3CCC3C)nc1C(F)(F)F)n2Cc1ccc(Cl)cc1` (stereo not drawn) [Example 10] belongs 9.82; to `CCn1c(=O)n(CCCO)c(=O)c2c1nc(-c1ccc(OC3CCC3(C)C)nc1C)n2Cc1ccc(F)cc1` (stereo not drawn) [Example 11], 9.79; to `CCn1c(=O)n(CCCO)c(=O)c2c1nc(-c1ccc(OC3CCC3C)nc1C(F)(F)F)n2Cc1ccccc1` (stereo not drawn) [Example 12], 9.77.
The compound `CCn1c(=O)n(CCCO)c(=O)c2c1nc(-c1cc(F)c(OC3CCC3)nc1C)n2Cc1ccc(F)cc1` [Example 13] showed a pIC50 of 9.76.
The result for `CCn1c(=O)n(CCCO)c(=O)c2c1nc(-c1ccc(OC3CCC3C)nc1C)n2Cc1ccc(Br)cc1` (stereo not drawn) [Example 14] reads 9.75; that for `CCn1c(=O)n(CCCO)c(=O)c2c1nc(-c1ccc(OC3CCC3C)nc1C(F)(F)F)n2Cc1ccc(F)cc1` (stereo not drawn) [Example 15], 9.74; that for `Cc1nc(OC2CCC2)ccc1-c1nc2c(c(=O)n(CCCO)c(=O)n2C2CCC2)n1Cc1ccccc1` [Example 16], 9.72.
To `CCn1c(=O)n(CCCO)c(=O)c2c1nc(-c1ccc(OC3CC(C)C3)nc1C)n2Cc1ccc(Cl)cc1` (stereo not drawn) [Example 17] belongs 9.70.
On to `CCn1c(=O)n(CCCO)c(=O)c2c1nc(-c1ccc(OC3CC(C)C3)nc1C)n2Cc1ccc(F)cc1` (stereo not drawn) [Example 18], for which the pIC50 was 9.68.
To `Cc1nc(OC2CCC2C)ccc1-c1nc2c(c(=O)n(CCCO)c(=O)n2C(C)C)n1Cc1ccccc1` (stereo not drawn) [Example 19] belongs 9.63; to `CCC(C)n1c(=O)n(CCCO)c(=O)c2c1nc(-c1ccc(OC3CC(C)C3)nc1C)n2Cc1ccccc1` (stereo not drawn) [Example 20], 9.61; to `Cc1nc(OC2CC=CC2)ccc1-c1nc2c(c(=O)n(CCCO)c(=O)n2C(C)C)n1Cc1ccccc1` [Example 22], 9.58.
The result for `CCn1c(=O)n(CCCO)c(=O)c2c1nc(-c1ccc(OC3CCCC3)nc1C)n2Cc1ccc(Cl)cc1` [Example 23] reads 9.56.
The result for `CCn1c(=O)n(CCCO)c(=O)c2c1nc(-c1ccc(OC3CC(C)(C)C3)nc1C)n2Cc1ccc(F)cc1` [Example 24] reads 9.55.
For the compound `Cc1nc(OC2CC(F)(F)C2)ccc1-c1nc2c(c(=O)n(CCCO)c(=O)n2C(C)C)n1Cc1ccc(F)cc1` [Example 25], the pIC50 was 9.51.
With `Cc1nc(OC2CC(C)C2)ccc1-c1nc2c(c(=O)n(CCCO)c(=O)n2C(C)C)n1Cc1ccccc1` (stereo not drawn) [Example 26], the pIC50 was over 9.49.
The result for `CCn1c(=O)n(CCCO)c(=O)c2c1nc(-c1ccc(O[C@H]3C[C@@H](C)C3)nc1C)n2Cc1ccccc1` [Example 27] reads 9.40; that for `CCn1c(=O)n(CCCO)c(=O)c2c1nc(-c1ccc(O[C@H]3C[C@H](C)C3)nc1C)n2Cc1ccccc1` [Example 28], 9.04; that for `CCn1c(=O)n(CCCO)c(=O)c2c1nc(-c1ccc(OC3CCCCC3)nc1C)n2Cc1ccc(F)cc1` [Example 29], 9.39.
To `Cc1nc(OC2CCC2)ccc1-c1nc2c(c(=O)n(CCCO)c(=O)n2C(C)C)n1Cc1ccccc1` [Example 30] belongs 9.37.
Consider `CCn1c(=O)n(CCCO)c(=O)c2c1nc(-c1ccc(OC3CCC3(C)C)nc1C)n2Cc1ccccc1` (stereo not drawn) [Example 31], for which the pIC50 was 9.37.
Regarding `CCn1c(=O)n(CCCO)c(=O)c2c1nc(-c1ccc(OC3CC(C)(C)C3)nc1C)n2Cc1ccccc1` [Example 32], the pIC50 is 9.34.
The result for `Cc1nc(OC2CCC2)ccc1-c1nc2c(c(=O)n(CCCO)c(=O)n2C(C)C)n1Cc1ccc(F)cc1` [Example 33] reads 9.32; that for `CCn1c(=O)n(CCCO)c(=O)c2c1nc(-c1ccc(OC3CC(C)C3)nc1C)n2Cc1ccccc1` (stereo not drawn) [Example 34], 9.31; that for `CCn1c(=O)n(CCCO)c(=O)c2c1nc(-c1ccc(OC3CCC(C(F)(F)F)CC3)nc1C)n2Cc1ccc(F)cc1` (stereo not drawn) [Example 35], 9.27.
The result for `CCn1c(=O)n(CCCO)c(=O)c2c1nc(-c1ccc(OC3CCC3)nc1C)n2Cc1ccc(Cl)cc1` [Example 36] reads 9.26; that for `CCC(C)n1c(=O)n(CCCO)c(=O)c2c1nc(-c1ccc(OC3CCCC3)nc1C)n2Cc1ccccc1` (stereo not drawn) [Example 37], 9.22.
The result for `CCn1c(=O)n(CCCO)c(=O)c2c1nc(-c1ccc(OC3CCC3)nc1)n2Cc1ccc(Br)cc1` [Example 38] reads 9.21; that for `CCn1c(=O)n(CCCO)c(=O)c2c1nc(-c1cc(F)c(OC3CCC3)nc1C)n2Cc1ccccc1` [Example 39], 9.20; that for `CCn1c(=O)n(CCCO)c(=O)c2c1nc(-c1ccc(OC3CCC3C)nc1)n2Cc1ccc(Cl)cc1` (stereo not drawn) [Example 40], 9.19.
Take `CCn1c(=O)n(CCCO)c(=O)c2c1nc(-c1ccc(OC3CCC3C)nc1C)n2Cc1ccc(F)cc1` (stereo not drawn) [Example 41]: the pIC50 was 9.16.
As to `CCC(C)n1c(=O)n(CCCO)c(=O)c2c1nc(-c1ccc(OC3CCC3)nc1C)n2Cc1ccccc1` (stereo not drawn) [Example 42], the pIC50 was 9.15.
To `Cc1nc(OC2CC(F)(F)C2)ccc1-c1nc2c(c(=O)n(CCCO)c(=O)n2C(C)C)n1Cc1ccccc1` [Example 43] belongs 9.14; to `CCn1c(=O)n(CCCO)c(=O)c2c1nc(-c1ccc(OC3CCCC3)nc1C)n2Cc1ccc(F)cc1` [Example 44], 9.13.
`CCn1c(=O)n(CCCO)c(=O)c2c1nc(-c1ccc(OC3CC=CC3)nc1C)n2Cc1ccc(F)cc1` [Example 45] showed a pIC50 of 9.12.
Turning to `CCn1c(=O)n(CCCO)c(=O)c2c1nc(-c1ccc(OC3CCC3)nc1)n2Cc1ccc(SC(F)(F)F)cc1` [Example 46], the pIC50 is 9.09.
